The nature of assay [1]: Rotating rod test (sedative/muscle relaxant properties), i.v. The class given is in vivo. The note with it: Mus musculus, iv, mice. The method, then:
The sedative/muscle relaxant properties of the compounds of formula I in accordance with the invention can be determined, for example, in the rotating rod test. Mice weighing 19-21 g are used for this test. They have free access to feed and drinking water up to 1 hour before the beginning of the test. They are brought into the test laboratory at least 30 minutes before the test. In the rotating rod test the animals are placed on a horizontally arranged, smooth metal rod having a diameter of 3 cm, which is rotated at 2 revolutions per minute. Initially, the animals are given the opportunity of familiarizing themselves with the test situation for 30 seconds. Subsequently, those animals which succeed in remaining on the rod for at least 1 minute are selected. These animals are then given the test preparations intravenously in different dosages. At various points in time it is then determined whether the animals are able to remain on the rod for a minimum period (minimum period: 10 seconds; from 5 minutes after administration: 1 minute.). That dosages at which 50% of the animals are capable of remaining on the rod (ED 50) is determined.

Assay [2] addresses central benzodiazepine receptors. Put plainly: Affinity to central benzodiazepine receptors: inhibition of binding of tritiated flumazenil in rat cortex. The note with it: in vitro. The method, then:
The affinity of compounds of general formula I to the central benzodiazepine receptors was established in vitro according to the methods described in Nature 294, 763-765 (1981) and J. Neurochemistry 37, 714-722 (1981). According to these methods, the inhibition of the binding of tritiated flumazenil to the specific benzodiazepine receptors in the cortex of rats by the respective test substances is determined. The IC50 ("50% inhibiting concentration") denotes that concentration of the respective test substance which brings about a 50 per cent inhibition of the specific binding of tritiated flumazenil to the specific benzodiazepine receptors in the cortex of rats.

Where [3] appears, read: 15 s, 15 sec after administration, read-out: Rotating rod test, ED50, 15 sec after administration.
The mark [4] stands for this setting: 0.5 min, 30 sec after administration, read-out: Rotating rod test, ED50, 30 sec after administration.
The mark [5] stands for this setting: 1 min, 60 sec after administration, read-out: Rotating rod test, ED50, 60 sec after administration.
Where [6] appears, read: 2 min, 2 min after administration, read-out: Rotating rod test, ED50, 2 min after administration.
[7] abbreviates: 5 min, 5 min after administration, read-out: Rotating rod test, ED50, 5 min after administration.
Where [8] appears, read: 0.25 h, 15 min after administration, read-out: Rotating rod test, ED50, 15 min after administration.
[9] abbreviates: 0.5 h, 30 min after administration, read-out: Rotating rod test, ED50, 30 min after administration.
The mark [10] stands for this setting: 1 h, 60 min after administration, read-out: Rotating rod test, ED50, 60 min after administration.

Read-outs that look alike come from different tables or passages of the source.

With `CC(C)N(Cc1nc(-c2ncn3c2CN(C)C(=O)c2cc(F)ccc2-3)no1)C(C)C` [P, 3-(5-diisopropylaminomethyl-1,2,4-oxadiazol-3-yl)-8-fluoro-5-methyl-5,6-dihydro-4H-imidazo[1,5-a][1,4]benzodiazepin-6-one], the ED50 in assay [1] (setting [3]) came to 0.1 mg/kg; in assay [1] (setting [4]), 0.2 mg/kg; in assay [1] (setting [5]), 0.3 mg/kg; in assay [1] (setting [6]), 0.7 mg/kg; in assay [1] (setting [7]), 1 mg/kg; in assay [1] (setting [8]), 4.3 mg/kg. The ED50 is ≥ 10 mg/kg in assay [1] (setting [9]) and > 10 mg/kg in assay [1] (setting [10]). This compound also showed an IC50 in assay [2] of 4.1 nM.
On to `CCCN(CCC)Cc1nnc(-c2ncn3c2CN(C)C(=O)c2cc(F)ccc2-3)o1` [G, 3-(5-dipropylaminomethyl-1,3,4-oxadiazol-2-yl)-8-fluoro-5-methyl-5,6-dihydro-4H-imidazo[1,5-c][1,4]benzodiazepin-6-one], for which the ED50 is 0.3 mg/kg in assay [1] (setting [3]); 0.3 mg/kg in assay [1] (setting [4]); 0.7 mg/kg in assay [1] (setting [5]); 1.1 mg/kg in assay [1] (setting [6]); 3.6 mg/kg in assay [1] (setting [7]); ≥ 10 mg/kg in assay [1] (setting [8]). Also, the ED50 in assay [1] (setting [9]) and in assay [1] (setting [10]) was > 10 mg/kg each time. The IC50 in assay [2] was 18.3 nM.
Consider `CN1Cc2c(-c3noc(CN4CCCCC4)n3)ncn2-c2ccc(F)cc2C1=O` [C, 8-fluoro-5-methyl-3-[5-(piperidin-1-ylmethyl)-1,2,4-oxadiazol-3-yl]-5,6-dihydro-4H-imidazo[1,5-a][1,4]benzodiazepin-6-one], for which the ED50 in assay [1] (setting [3]) was 0.8 mg/kg; in assay [1] (setting [4]), 0.8 mg/kg; in assay [1] (setting [5]), 1.2 mg/kg; in assay [1] (setting [6]), 1.6 mg/kg; in assay [1] (setting [7]), 3.2 mg/kg; in assay [1] (setting [8]), ≥ 10 mg/kg. Moreover, the ED50 in assay [1] (setting [9]) and in assay [1] (setting [10]) was > 10 mg/kg throughout. In assay [2], the IC50 turned out to be 50 nM.
As to `CC(C)N(Cc1nc(-c2ncn3c2CN(C)C(=O)c2ccccc2-3)no1)C(C)C` [O, 3-(5-diisopropylaminomethyl-1,2,4-oxadiazol-3-yl)-5-methyl-5,6-dihydro-4H-imidazo[1,5-a][1,4]benzodiazepin-6-one], the ED50 was 0.3 mg/kg in assay [1] (setting [3]); 0.5 mg/kg in assay [1] (setting [4]); 0.7 mg/kg in assay [1] (setting [5]); 1 mg/kg in assay [1] (setting [6]); 3 mg/kg in assay [1] (setting [7]); > 10 mg/kg in assay [1] (setting [8]). Moreover, the ED50 in assay [1] (setting [9]) and in assay [1] (setting [10]) was > 10 mg/kg in each case. In addition, the IC50 in assay [2] is 6.4 nM.
For the compound `CCCN(CCC)Cc1nc(-c2ncn3c2CN(C)C(=O)c2c(F)cccc2-3)no1` [J, 7-fluoro-5-methyl-3-(5-dipropylaminomethyl-1,2,4-oxadiazol-3-yl)-5,6-dihydro-4H-imidazo[1,5-a][1,4]benzodiazepin-6-one], the ED50 was 0.1 mg/kg in assay [1] (setting [3]); 0.2 mg/kg in assay [1] (setting [4]); 0.3 mg/kg in assay [1] (setting [5]); 0.4 mg/kg in assay [1] (setting [6]); 1.1 mg/kg in assay [1] (setting [7]); > 10 mg/kg in assay [1] (setting [8]). The ED50 in assay [1] (setting [9]) and in assay [1] (setting [10]) was > 10 mg/kg in each case. This compound came in with an IC50 in assay [2] of 2.3 nM.
As for `CCCN(CCC)Cc1nnc(-c2ncn3c2CN(C)C(=O)c2c(Cl)cccc2-3)o1` [L, 7-chloro-3-(5-dipropylaminomethyl-1,3,4-oxadiazol-2-yl)-5-methyl-5,6-dihydro-4H-imidazo[1,5-a][1,4]benzodiazepin-6-one], the ED50 in assay [1] (setting [3]) is 0.3 mg/kg; in assay [1] (setting [4]), 0.4 mg/kg; in assay [1] (setting [5]) it was 0.6 mg/kg; in assay [1] (setting [6]), 1.5 mg/kg; in assay [1] (setting [7]), 5 mg/kg; in assay [1] (setting [8]), > 10 mg/kg. For the same compound, the ED50 in assay [1] (setting [9]) and in assay [1] (setting [10]) was > 10 mg/kg each time. The same compound displayed an IC50 in assay [2] of 4.5 nM.

What is called IC50 is the concentration needed to halve the response being measured. Higher therefore signals lower potency.
